Read-outs that look alike come from different tables or passages of the source.
Experiments:
[1] = molecular target: T1, Human FAAH (Homo sapiens, UniProt O00519); experiment: FAAH assay, kinetic analysis of irreversible inhibition (kinact/Ki); assay type: biochemical
T1 construct: made in house
T1 sequence (O00519 32-579 limits assumed): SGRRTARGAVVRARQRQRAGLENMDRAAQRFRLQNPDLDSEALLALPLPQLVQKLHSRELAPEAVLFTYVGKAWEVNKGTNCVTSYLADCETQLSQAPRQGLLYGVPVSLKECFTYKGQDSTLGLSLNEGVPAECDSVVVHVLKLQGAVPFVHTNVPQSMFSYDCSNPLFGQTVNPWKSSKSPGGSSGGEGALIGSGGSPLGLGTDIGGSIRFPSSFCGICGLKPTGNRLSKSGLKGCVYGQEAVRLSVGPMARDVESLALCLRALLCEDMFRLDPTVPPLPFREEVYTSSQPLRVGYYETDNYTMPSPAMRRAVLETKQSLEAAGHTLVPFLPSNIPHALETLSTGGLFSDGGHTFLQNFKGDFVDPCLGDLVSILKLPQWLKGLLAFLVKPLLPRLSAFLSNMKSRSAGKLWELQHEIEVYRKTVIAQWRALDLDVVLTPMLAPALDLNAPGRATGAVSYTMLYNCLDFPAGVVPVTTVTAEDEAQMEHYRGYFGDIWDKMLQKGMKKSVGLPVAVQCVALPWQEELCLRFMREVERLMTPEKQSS
Description: A FAAH assay may be carried out in 384-well clear polystyrene plates in a total volume of 50 μl per well. All percents are by volume. To each well is placed the reaction mixture (40 μl) containing 1-4 nM FAAH, 50 mM NaPi, pH 7.4, 3 mM α-ketoglutarate, 0.15 mM NADH, 7.5 U/ml glutamate dehydrogenase, 2 mM ADP, 1 mM EDTA, and 0.1% Triton X-100 (The concentration shown for each component is the final concentration in the assay). To this mixture is added 5 μl of a compound of Examples 1 to 20 at various concentrations prepared in 50% DMSO (or 5 μl 50% DMSO for controls). This is immediately followed by the addition of 5 μl oleamide (500 μM) dissolved in […] and the reaction mixture is mixed for 1.5 min. The final concentrations of DMSO and EtOH in the assay are each 7.5%. The reactions is then incubated at 30° C. and the absorbance at 340 nm is collected over a period of 90 min with readings taken in 30-second intervals using SpectraMax Plus^384 Microplate Spectrophotometer (Molecular Devices, Sunnyvale, Calif.). Human FAAH used in the assay is prepared as described in the patent application WO 2006/067613. The purity of the enzyme used is preferably greater than 98% based on an analysis by SDS-polyacrylamide gel electrophoresis followed by Coomassie Blue staining.
Initial velocity data (V) is obtained from the slopes of the initial progressive curves. They are plotted as a function of substrate concentration and fit to the Michaelis-Menten equation (1) using Prism (GraphPad Software, Inc., San Diego, Calif.) software to obtain Km and Vmax values.
To obtain potencies of irreversible inhibitors, progressive curves consistent with first order inhibition kinetics (two-step irreversible inhibition mechanism) are fit to equation (2) by nonlinear least squares regressions to determine kobs values at each inhibitor concentration, where [P]t is the absorbance at time t, V0 is a constant related to the steady state rate of the uninhibited reaction, and kobs is the first order rate constant for enzyme inactivation. The inhibitor dissociation constant (Ki) and the first order rate
constant of enzyme inactivation at infinite inhibitor concentration (kinact) are then obtained by fitting the kobs vs. [I] curves to equation (3).

[2] = molecular target: T2, rFAAH (Rattus norvegicus, UniProt P97612); experiment: FAAH assay, rFAAH kobs/I; assay type: biochemical; conditions: additional data table, unit not given
T2 sequence (P97612 1-579): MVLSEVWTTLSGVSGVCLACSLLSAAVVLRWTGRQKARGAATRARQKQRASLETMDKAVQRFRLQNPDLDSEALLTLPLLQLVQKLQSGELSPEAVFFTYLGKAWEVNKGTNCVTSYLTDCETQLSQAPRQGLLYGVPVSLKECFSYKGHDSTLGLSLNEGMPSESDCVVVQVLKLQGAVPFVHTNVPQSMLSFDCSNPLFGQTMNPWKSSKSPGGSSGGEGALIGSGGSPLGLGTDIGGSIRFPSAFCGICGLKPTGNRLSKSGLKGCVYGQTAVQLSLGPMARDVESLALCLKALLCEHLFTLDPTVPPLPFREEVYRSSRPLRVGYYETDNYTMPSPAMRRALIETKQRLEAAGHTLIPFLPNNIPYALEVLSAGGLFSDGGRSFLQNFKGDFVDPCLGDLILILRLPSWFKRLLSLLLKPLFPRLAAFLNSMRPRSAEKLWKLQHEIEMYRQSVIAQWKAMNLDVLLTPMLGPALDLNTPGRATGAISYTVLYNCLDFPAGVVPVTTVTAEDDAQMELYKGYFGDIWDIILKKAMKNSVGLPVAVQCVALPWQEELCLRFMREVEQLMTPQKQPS

[3] = additional data table, unit inferred, read-out: hFAAH_Kinact/Ki

| Structure (SMILES) | kinact/KI [1, 3] [M⁻¹ s⁻¹] | FAAH_KINACTR:rFAAH:kobs/I [2] | kinact/KI ([1]; oleamide substrate, 30° C., pH 7.4, read-out: hFAAH KInact/KI) [M⁻¹ s⁻¹] |
| --- | --- | --- | --- |
| CCCCOc1cccc(C=C2CCN(C(=O)Nc3onc(C)c3C)CC2)c1 [4-(3-butoxybenzylidene)-N-(3,4-dimethylisoxazol-5-yl)piperidine-1-carboxamide] | 14800 | 2820 | – |
| CCCCOc1cccc(C=C2CCN(C(=O)Nc3cnoc3C)CC2)c1 [4-(3-butoxybenzylidene)-N-(5-methylisoxazol-4-yl)piperidine-1-carboxamide] | 2120 | 12.9 | – |
| Cc1noc(NC(=O)N2CCC(=Cc3cccc(OCCC4CC4)c3)CC2)c1C [4-[3-(2-cyclopropylethoxy)benzylidene]-N-(3,4-dimethylisoxazol-5-yl)piperidine-1-carboxamide] | 12900 | 2660 | – |
| Cc1oncc1NC(=O)N1CCC(=Cc2cccc(OCCOC(C)C)c2)CC1 [4-[3-(2-isopropoxyethoxy)benzylidene]-N-(5-methylisoxazol-4-yl)piperidine-1-carboxamide] | 2670 | <12.6 | – |
| Cc1oncc1NC(=O)N1CCC(=Cc2cccc(OCCCc3cnoc3)c2)CC1 [4-[3-(3-isoxazol-4-ylpropoxy)benzylidene]-N-(5-methylisoxazol-4-yl)piperidine-1-carboxamide] | 3990 | <13.2 | – |
| Cc1noc(NC(=O)N2CCC(=Cc3cccc(OCC4CCCC4)c3)CC2)c1C [4-[3-(cyclopentylmethoxy)benzylidene]-N-(3,4-dimethylisoxazol-5-yl)piperidine-1-carboxamide] | 5110 | 2360 | – |
| Cc1oncc1NC(=O)N1CCC(=Cc2cccc(OCC3CCCC3)c2)CC1 [4-[3-(cyclopentylmethoxy)benzylidene]-N-(5-methylisoxazol-4-yl)piperidine-1-carboxamide] | 838 | <10.0 | – |
| Cc1oncc1NC(=O)N1CCC(=Cc2cccc(OCCc3cccc(F)c3)c2)CC1 [4-{3-[2-(3-fluorophenyl)ethoxy]benzylidene}-N-(5-methylisoxazol-4-yl)piperidine-1-carboxamide] | 11000 | 59.9 | – |
| Cc1oncc1NC(=O)N1CCC(=Cc2cccc(OCCc3ccc(F)cc3)c2)CC1 [4-{3-[2-(4-fluorophenyl)ethoxy]benzylidene}-N-(5-methylisoxazol-4-yl)piperidine-1-carboxamide] | 1480 | 52.7 | – |
| Cc1noc(NC(=O)N2CCC(=Cc3cccc(OCC4CCC(F)(F)CC4)c3)CC2)c1C [4-{3-[(4,4-difluorocyclohexyl)methoxy]benzylidene}-N-(3,4-dimethylisoxazol-5-yl)piperidine-1-carboxamide] | 3970 | 5360 | – |
| Cc1oncc1NC(=O)N1CCC(=Cc2cccc(OCC3CCC(F)(F)CC3)c2)CC1 [4-{3-[(4,4-difluorocyclohexyl)methoxy]benzylidene}-N-(5-methylisoxazol-4-yl)piperidine-1-carboxamide] | 1730 | 16.2 | – |
| Cc1noc(NC(=O)N2CCC(=Cc3cccc(OC4CCC(F)(F)CC4)c3)CC2)c1C [4-{3-[(4,4-difluorocyclohexyl)oxy]benzylidene}-N-(3,4-dimethylisoxazol-5-yl)piperidine-1-carboxamide] | 2540 | 1750 | – |
| Cc1oncc1NC(=O)N1CCC(=Cc2cccc(OC3CCC(F)(F)CC3)c2)CC1 [4-{3-[(4,4-difluorocyclohexyl)oxy]benzylidene}-N-(5-methylisoxazol-4-yl)piperidine-1-carboxamide] | 2900 | 19.8 | – |
| O=C(Nc1cnoc1)N1CCC(=Cc2cccc(OC3CCC(F)(F)CC3)c2)CC1 [4-{3-[(4,4-difluorocyclohexyl)oxy]benzylidene}-N-isoxazol-4-ylpiperidine-1-carboxamide] | 1530 | <10.0 | – |
| Cc1noc(NC(=O)N2CCC(=Cc3cccc(OC4CCC(C)(C)CC4)c3)CC2)c1C [4-{3-[(4,4-dimethylcyclohexyl)oxy]benzylidene}-N-(3,4-dimethylisoxazol-5-yl)piperidine-1-carboxamide] | 959 | 4910 | – |
| Cc1oncc1NC(=O)N1CCC(=Cc2cccc(OC3CCC(C)(C)CC3)c2)CC1 [4-{3-[(4,4-dimethylcyclohexyl)oxy]benzylidene}-N-(5-methylisoxazol-4-yl)piperidine-1-carboxamide] | 2860 | 160 | – |
| Cc1noc(NC(=O)N2CCC(=Cc3cccc(OCC4CCCCO4)c3)CC2)c1C (centres unmarked) [Example 1, N-(3,4-dimethylisoxazol-5-yl)-4-[3-(tetrahydro-2H-pyran-2-ylmethoxy)benzylidene]piperidine-1-carboxamide] | – | – | 5450 |
| Cn1nnnc1NC(=O)N1CCC(=Cc2cccc(OCC3CCCCO3)c2)CC1 (centres unmarked) [N-(1-methyl-1H-tetrazol-5-yl)-4-[3-(tetrahydro-2H-pyran-2-ylmethoxy)benzylidene]piperidine-1-carboxamide] | 7490 | 1610 | – |
| Cc1noc(NC(=O)N2CCC(=Cc3cccc(OC(C)Cc4ccccc4)c3)CC2)c1C (centres unmarked) [N-(3,4-dimethylisoxazol-5-yl)-4-[3-(1-methyl-2-phenylethoxy)benzylidene]piperidine-1-carboxamide] | 3410 | 10600 | – |
| CCCC(C)Oc1cccc(C=C2CCN(C(=O)Nc3onc(C)c3C)CC2)c1 (centres unmarked) [N-(3,4-dimethylisoxazol-5-yl)-4-[3-(1-methylbutoxy)benzylidene]piperidine-1-carboxamide] | 4600 | 4610 | – |
| Cc1noc(NC(=O)N2CCC(=Cc3cccc(OCCOC(C)C)c3)CC2)c1C [N-(3,4-dimethylisoxazol-5-yl)-4-[3-(2-isopropoxyethoxy)benzylidene]piperidine-1-carboxamide] | 12700 | 4760 | – |
| Cc1noc(NC(=O)N2CCC(=Cc3cccc(OCCCc4cnoc4)c3)CC2)c1C [N-(3,4-dimethylisoxazol-5-yl)-4-[3-(3-isoxazol-4-ylpropoxy)benzylidene]piperidine-1-carboxamide] | 7170 | 2580 | – |
| Cc1noc(NC(=O)N2CCC(=Cc3cccc(OCCC(C)C)c3)CC2)c1C [N-(3,4-dimethylisoxazol-5-yl)-4-[3-(3-methylbutoxy)benzylidene]piperidine-1-carboxamide] | 7710 | 2590 | – |
| Cc1noc(NC(=O)N2CCC(=Cc3cccc(OCC(C)CC(F)(F)F)c3)CC2)c1C (centres unmarked) [N-(3,4-dimethylisoxazol-5-yl)-4-[3-(4,4,4-trifluoro-2-methylbutoxy)benzylidene]piperidine-1-carboxamide] | 5190 | 2530 | – |

— patent US20110053982A1, “ETHER BENZYLIDENE PIPERIDINE 5-MEMBERED ARYL CARBOXAMIDE COMPOUNDS USEFUL AS FAAH INHIBITORS” (PFIZER INC., priority 2008, published 2011)
